The target of experiment [1] is cGMP-inhibited 3',5'-cyclic phosphodiesterase 3A (Homo sapiens, UniProt Q14432). The class given is functional.
Experiment [2] has as its target T1, Alpha-2C adrenergic receptor (Homo sapiens, UniProt P18825).
T1 sequence (P18825 whole entry): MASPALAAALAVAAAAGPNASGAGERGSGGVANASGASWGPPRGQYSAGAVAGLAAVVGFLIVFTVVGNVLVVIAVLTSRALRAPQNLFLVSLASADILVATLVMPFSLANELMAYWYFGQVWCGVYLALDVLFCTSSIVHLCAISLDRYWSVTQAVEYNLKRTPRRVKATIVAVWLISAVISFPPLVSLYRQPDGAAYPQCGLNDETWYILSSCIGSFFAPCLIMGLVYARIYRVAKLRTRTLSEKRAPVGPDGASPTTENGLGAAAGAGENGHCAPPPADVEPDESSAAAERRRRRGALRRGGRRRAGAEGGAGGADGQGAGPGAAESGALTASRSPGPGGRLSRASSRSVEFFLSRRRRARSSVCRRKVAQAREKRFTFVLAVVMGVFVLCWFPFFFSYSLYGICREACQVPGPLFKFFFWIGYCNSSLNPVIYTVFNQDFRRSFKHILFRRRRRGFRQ
It is filed as functional.

The target in experiment [3] is T2, 5-hydroxytryptamine receptor 3A (Homo sapiens, UniProt P46098).
T2 sequence (P46098 whole entry): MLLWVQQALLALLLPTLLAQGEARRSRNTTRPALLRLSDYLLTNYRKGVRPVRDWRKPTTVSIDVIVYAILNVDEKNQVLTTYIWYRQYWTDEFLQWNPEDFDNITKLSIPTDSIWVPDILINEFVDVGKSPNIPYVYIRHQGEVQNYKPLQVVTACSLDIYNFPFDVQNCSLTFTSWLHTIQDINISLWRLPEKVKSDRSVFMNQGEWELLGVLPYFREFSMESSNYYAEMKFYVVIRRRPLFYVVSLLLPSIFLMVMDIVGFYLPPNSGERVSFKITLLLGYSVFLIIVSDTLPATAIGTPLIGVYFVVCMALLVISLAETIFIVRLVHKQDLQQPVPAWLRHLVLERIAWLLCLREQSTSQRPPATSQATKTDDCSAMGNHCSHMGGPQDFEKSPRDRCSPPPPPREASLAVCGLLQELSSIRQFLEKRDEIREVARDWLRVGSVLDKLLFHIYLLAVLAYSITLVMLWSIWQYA
The class given is functional.

Experiment [4] concerns the target T3, 5-hydroxytryptamine receptor 2C (Homo sapiens, UniProt P28335).
T3 sequence (P28335 whole entry): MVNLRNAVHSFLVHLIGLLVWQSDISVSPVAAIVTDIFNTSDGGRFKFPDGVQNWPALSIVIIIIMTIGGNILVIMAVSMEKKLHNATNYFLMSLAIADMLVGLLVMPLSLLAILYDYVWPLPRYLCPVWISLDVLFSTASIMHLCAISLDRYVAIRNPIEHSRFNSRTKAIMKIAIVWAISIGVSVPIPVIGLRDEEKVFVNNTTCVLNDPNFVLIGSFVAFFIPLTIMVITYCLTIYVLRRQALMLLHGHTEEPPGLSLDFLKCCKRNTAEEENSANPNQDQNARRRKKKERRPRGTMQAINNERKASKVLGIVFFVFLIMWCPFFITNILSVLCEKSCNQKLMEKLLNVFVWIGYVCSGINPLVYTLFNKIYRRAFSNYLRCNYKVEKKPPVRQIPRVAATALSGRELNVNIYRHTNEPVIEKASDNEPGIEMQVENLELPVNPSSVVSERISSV

Experiment [5] addresses T4, Prostaglandin G/H synthase 1 (Rattus norvegicus, UniProt Q63921).
T4 sequence (Q63921 whole entry): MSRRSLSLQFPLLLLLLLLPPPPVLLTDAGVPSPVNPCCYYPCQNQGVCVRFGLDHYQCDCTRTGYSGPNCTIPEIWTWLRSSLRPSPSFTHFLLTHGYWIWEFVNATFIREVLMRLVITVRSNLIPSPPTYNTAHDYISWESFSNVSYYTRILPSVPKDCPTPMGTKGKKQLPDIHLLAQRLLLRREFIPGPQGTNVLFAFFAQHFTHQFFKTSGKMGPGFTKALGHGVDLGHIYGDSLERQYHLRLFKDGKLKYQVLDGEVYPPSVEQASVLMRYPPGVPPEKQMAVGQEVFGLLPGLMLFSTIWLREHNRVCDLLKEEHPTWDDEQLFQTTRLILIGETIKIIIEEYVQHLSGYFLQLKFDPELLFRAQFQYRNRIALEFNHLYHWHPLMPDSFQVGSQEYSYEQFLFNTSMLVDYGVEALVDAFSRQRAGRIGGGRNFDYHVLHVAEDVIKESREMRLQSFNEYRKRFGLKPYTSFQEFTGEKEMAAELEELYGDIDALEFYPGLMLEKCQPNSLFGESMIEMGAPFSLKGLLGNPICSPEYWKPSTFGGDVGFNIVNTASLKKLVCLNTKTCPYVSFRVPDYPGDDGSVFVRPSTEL
It is filed as functional.

Another experiment concerns the target T5, Adenosine receptor A1 (Homo sapiens, UniProt P30542).
T5 sequence (P30542 whole entry): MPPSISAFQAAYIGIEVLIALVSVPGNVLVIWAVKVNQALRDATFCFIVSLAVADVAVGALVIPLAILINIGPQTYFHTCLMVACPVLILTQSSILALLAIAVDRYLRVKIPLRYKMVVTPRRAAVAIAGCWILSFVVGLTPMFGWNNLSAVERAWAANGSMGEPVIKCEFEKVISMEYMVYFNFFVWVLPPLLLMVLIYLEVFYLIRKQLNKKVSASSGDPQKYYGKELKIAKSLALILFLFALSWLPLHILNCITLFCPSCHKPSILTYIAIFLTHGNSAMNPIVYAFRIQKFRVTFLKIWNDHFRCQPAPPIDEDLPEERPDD

Experiment [6] addresses T6, 5-hydroxytryptamine receptor 1A (Homo sapiens, UniProt P08908).
T6 sequence (P08908 whole entry): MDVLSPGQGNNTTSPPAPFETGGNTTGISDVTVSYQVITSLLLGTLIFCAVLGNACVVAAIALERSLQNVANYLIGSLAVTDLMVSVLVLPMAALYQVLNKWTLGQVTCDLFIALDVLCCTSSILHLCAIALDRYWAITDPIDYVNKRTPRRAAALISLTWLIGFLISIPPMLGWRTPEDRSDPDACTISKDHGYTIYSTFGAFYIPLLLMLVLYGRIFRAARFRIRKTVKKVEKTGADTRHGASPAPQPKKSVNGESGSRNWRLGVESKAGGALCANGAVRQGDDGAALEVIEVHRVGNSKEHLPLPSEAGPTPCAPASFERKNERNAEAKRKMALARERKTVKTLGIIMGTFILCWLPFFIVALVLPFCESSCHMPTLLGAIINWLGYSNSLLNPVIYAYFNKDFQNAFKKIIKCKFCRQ
The class given is functional, cell-based.

The text below walks through data of ChEMBL document CHEMBL5291721, “A preclinical secondary pharmacology resource illuminates target-adverse drug reaction associations of marketed drugs” (Nat Commun, 2023).

SMILES strings stand for the structures.

Broadly, the AC50 is the concentration at which the activity in the assay is half-maximal. Read a high AC50 as activity only at high concentration.
Note: assay procedure not described here.

Chain of cGMP-inhibited 3',5'-cyclic phosphodiesterase 3A (Q14432 whole entry): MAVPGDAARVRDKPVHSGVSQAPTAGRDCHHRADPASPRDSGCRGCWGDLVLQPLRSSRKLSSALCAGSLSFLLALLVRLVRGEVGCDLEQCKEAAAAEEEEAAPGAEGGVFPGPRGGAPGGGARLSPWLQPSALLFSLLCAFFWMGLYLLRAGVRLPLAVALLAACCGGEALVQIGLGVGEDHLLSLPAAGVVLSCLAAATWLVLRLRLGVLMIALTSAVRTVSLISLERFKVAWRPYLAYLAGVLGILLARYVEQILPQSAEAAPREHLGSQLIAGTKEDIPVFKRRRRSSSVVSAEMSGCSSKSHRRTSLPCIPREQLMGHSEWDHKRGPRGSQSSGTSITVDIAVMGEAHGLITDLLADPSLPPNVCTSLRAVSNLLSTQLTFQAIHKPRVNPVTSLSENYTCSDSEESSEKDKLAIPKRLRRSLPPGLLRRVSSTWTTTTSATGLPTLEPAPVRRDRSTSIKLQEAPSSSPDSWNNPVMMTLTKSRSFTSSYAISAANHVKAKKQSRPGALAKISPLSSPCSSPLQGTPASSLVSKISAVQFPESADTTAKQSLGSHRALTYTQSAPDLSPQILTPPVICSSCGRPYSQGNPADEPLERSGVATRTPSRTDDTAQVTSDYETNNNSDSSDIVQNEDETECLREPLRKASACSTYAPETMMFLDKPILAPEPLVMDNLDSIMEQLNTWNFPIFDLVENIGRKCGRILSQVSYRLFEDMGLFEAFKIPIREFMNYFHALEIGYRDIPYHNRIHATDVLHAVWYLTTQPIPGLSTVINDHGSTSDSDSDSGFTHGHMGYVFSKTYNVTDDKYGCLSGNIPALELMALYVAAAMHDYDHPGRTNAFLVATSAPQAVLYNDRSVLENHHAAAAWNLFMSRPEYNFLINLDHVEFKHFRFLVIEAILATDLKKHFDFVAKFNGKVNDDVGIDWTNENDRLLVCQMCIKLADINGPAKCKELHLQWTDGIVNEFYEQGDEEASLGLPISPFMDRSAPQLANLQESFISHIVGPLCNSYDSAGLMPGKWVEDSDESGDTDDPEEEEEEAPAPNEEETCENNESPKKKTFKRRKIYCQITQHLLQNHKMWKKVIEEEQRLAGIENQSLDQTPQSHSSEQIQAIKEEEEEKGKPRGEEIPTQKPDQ

Turning to `CCC[C@H](NC(=O)[C@@H]1[C@H]2CCC[C@H]2CN1C(=O)[C@@H](NC(=O)[C@@H](NC(=O)c1cnccn1)C1CCCCC1)C(C)(C)C)C(=O)C(=O)NC1CC1`, the AC50 was over 30 µM in experiment [1]; over 10 µM in experiment [2]; over 30 µM in experiment [3]; over 30 µM in experiment [4]; over 30 µM in experiment [5]; over 30 µM at Adenosine receptor A1.
On to `CC(=O)N[C@@H](CS)C(=O)O` [ACETYLCYSTEINE], for which the AC50 (in experiment [1]; in experiment [2]; in experiment [3]; in experiment [4]; in experiment [6]; at Adenosine receptor A1) was over 30 µM in each case.
Take `C=CCNc1nc(NCC=C)nc(N2CCN(C(c3ccc(F)cc3)c3ccc(F)cc3)CC2)n1` [ALMITRINE]: the AC50 in experiment [1], in experiment [2], in experiment [3], in experiment [4], in experiment [5] and in experiment [6] was over 30 µM in each case. Moreover, the AC50 at Adenosine receptor A1 is over 30 µM.
For `CN1CCC(=C2c3ccccc3CCc3cccnc32)CC1` [AZATADINE], the AC50 in experiment [1] was over 30 µM; in experiment [3] it was over 30 µM; in experiment [4], 3.1 µM; in experiment [5] it was over 30 µM; in experiment [6], over 30 µM; on Adenosine receptor A1, over 30 µM.
For `CC(C)COCC(CN(Cc1ccccc1)c1ccccc1)N1CCCC1` (configuration not stated) [BEPRIDIL], the AC50 is over 30 µM in experiment [1]; 3.3 µM in experiment [2]; over 30 µM in experiment [3]; over 30 µM in experiment [4]; over 30 µM in experiment [5]; over 30 µM in experiment [6]. Moreover, the AC50 at Adenosine receptor A1 is over 30 µM.
Consider `CCCCC(=O)O[C@]1(C(=O)CO)[C@@H](C)C[C@H]2[C@@H]3CCC4=CC(=O)C=C[C@]4(C)[C@@]3(F)[C@@H](O)C[C@@]21C` [BETAMETHASONE VALERATE], for which the AC50 in experiment [1] was over 30 µM; in experiment [2], over 10 µM; in experiment [3], over 30 µM; in experiment [4], over 30 µM; in experiment [5] it was over 30 µM; in experiment [6] it was over 30 µM. Moreover, the AC50 on Adenosine receptor A1 was over 30 µM.
As for `C/N=C(\NC)NCc1ccccc1` [BETHANIDINE], the AC50 in experiment [1] was over 30 µM; in experiment [2] it was over 30 µM; in experiment [3] it was over 30 µM; in experiment [4], over 10 µM; in experiment [5] it was over 30 µM; in experiment [6] it was over 30 µM. On Adenosine receptor A1, this compound returned an AC50 of over 30 µM.
`CCC(C)C1(CC)C(=O)NC(=O)NC1=O` (configuration not stated) [BUTABARBITAL]: the AC50 (in experiment [1]; in experiment [2]; in experiment [5]; in experiment [6]; at Adenosine receptor A1) was over 30 µM in each case.
As for `COCC1=C(C(=O)O)N2C(=O)[C@@H](NC(=O)/C(=N\OC)c3csc(N)n3)[C@H]2SC1` [CEFPODOXIME], the AC50 in experiment [1] is over 30 µM; in experiment [2], over 30 µM; in experiment [3], over 30 µM; in experiment [4] it was 0.12 µM; in experiment [5], over 30 µM; in experiment [6] it was over 30 µM. The AC50 on Adenosine receptor A1 was over 30 µM.
Consider `O=C(O)c1cn(C2CC2)c2cc(N3CCNCC3)c(F)cc2c1=O` [CIPROFLOXACIN], for which the AC50 (in experiment [1]; at Adenosine receptor A1) was over 30 µM throughout.
With `CCOC(=O)c1cncn1[C@H](C)c1ccccc1` [ETOMIDATE], the AC50 in experiment [1] was over 30 µM; in experiment [2], over 10 µM; in experiment [4] it was over 30 µM; in experiment [5], over 10 µM; in experiment [6] it was over 10 µM; on Adenosine receptor A1, over 10 µM.
Turning to `Cc1cnc(C(=O)NCCc2ccc(S(=O)(=O)NC(=O)NC3CCCCC3)cc2)cn1` [GLIPIZIDE], the AC50 is over 30 µM in experiment [1]; over 10 µM in experiment [2]; over 10 µM in experiment [3]; over 30 µM in experiment [4]; over 10 µM in experiment [6]; over 30 µM on Adenosine receptor A1.
`CC(C)NCC(O)c1ccc(O)c(O)c1` (configuration not stated) [ISOPROTERENOL]: the AC50 is 18 µM in experiment [1]; over 10 µM in experiment [3]; over 30 µM in experiment [4]; over 30 µM in experiment [5]; over 10 µM in experiment [6]; over 30 µM on Adenosine receptor A1.
For `Oc1ccc2c(c1)CC[C@H](c1ccccc1)[C@@H]2c1ccc(OCCN2CCCC2)cc1` [LASOFOXIFENE], the AC50 in experiment [1] was over 30 µM; in experiment [3] it was over 30 µM; in experiment [4], 5.3 µM; in experiment [5], 5 µM; in experiment [6], over 30 µM; on Adenosine receptor A1 it was over 30 µM.
With `CN1CCN(C2=Nc3ccccc3Oc3ccc(Cl)cc32)CC1` [LOXAPINE], the AC50 in experiment [1] was over 30 µM; in experiment [3], 0.38 µM; in experiment [4], 0.029 µM; in experiment [5] it was over 30 µM; in experiment [6] it was over 10 µM; on Adenosine receptor A1, over 30 µM.
As to `O=[N+]([O-])c1ccc(O)c2ncccc12` [NITROXOLINE], the AC50 in experiment [1] is over 30 µM; in experiment [2], 7.1 µM; in experiment [3], 6.6 µM; in experiment [4] it was 5.5 µM; in experiment [6] it was over 30 µM.
As for `CC[C@@H]([C@H](C)O)n1ncn(-c2ccc(N3CCN(c4ccc(OC[C@@H]5CO[C@@](Cn6cncn6)(c6ccc(F)cc6F)C5)cc4)CC3)cc2)c1=O` [POSACONAZOLE], the AC50 in experiment [1], in experiment [2] and in experiment [5] was over 30 µM in each case.
Take `CNCc1ccc(-c2[nH]c3cc(F)cc4c3c2CCNC4=O)cc1` [RUCAPARIB]: the AC50 in experiment [1] is over 30 µM; in experiment [2] it was over 10 µM; in experiment [5], over 30 µM; on Adenosine receptor A1, over 30 µM.
